Laboratory results from publication PMC10638401, “Mannich-type modifications of (−)-cannabidiol and (−)-cannabigerol leading to new, bioactive derivatives” (Scientific Reports, 2023).
Converted amounts (≈) assume the structure as drawn.

Key:
[1] = test system: Enterococcus faecalis 51299 VanB; test: MIC, broth micro dilution; details: Enterococcus faecalis, 51299VANB
Procedure: (§2) According to CLSI guideline the Minimal Inhibitory Concentrations (MICs) of the prepared compounds were determined with the broth micro dilution method. After an overnight growth on 5% bovine blood agar plates at 35 °C bacterial strains were suspended in physiological saline in order to reach the density of 0.5 McFarland for inoculation. Stock solutions containing different concentrations of the substances were prepared in DMSO and H2O (1:1). These were twofold serially diluted from 256 to 0.5 mg/l in Mueller–Hinton broth, and 100 ml of each dilution was inoculated with 10 ml of each bacterial suspension.

Escherichia coli = test: Antibacterial effect, broth micro dilution; type: cell-based
[2] = test system: Enterococcus faecalis 29 212; test: MIC, broth micro dilution; details: Enterococcus faecalis, 29212
[3] = test system: Klebsiella pneumoniae carbapenemase-producing bacteria; test: Antibacterial effect, broth micro dilution
Procedure: as §2

SZ95 sebocytes [4] = test: Nile Red-assay, spontaneous sebaceous lipogenesis; type: cell-based, human; details: 48 h
SZ95 sebocytes [5] = test: Nile Red-assay, arachidonic acid-induced lipogenesis; type: cell-based, human; details: 50 μM arachidonic acid, 48 h
Procedure: (§1) Human immortalized SZ95 sebocytes, originated from human facial sebaceous glands[50] were provided by prof. Christos C. Zouboulis, and were cultured in Sebomed® Basal Medium (Cat. No. F8205; Sigma-Aldrich) supplemented with 10% FBS (Gibco-Thermo Fisher Scientific), 1 mM CaCl2 (Cat. No. C7902; Sigma-Aldrich), 5 ng/ml human epidermal growth factor (Cat. No. E9644; Sigma-Aldrich), and MycoZap™ Plus-CL (1:500; Lonza). The medium was changed every other day, and cells were subcultured at 60–70% confluence.
For quantitative measurement of sebaceous (neutral) lipid content, SZ95 sebocytes (20,000 cells/well) were cultured in 96-well “black well/clear bottom” plates (Cat. No. 655090; Greiner Bio-One, Frickenhausen, Germany), and were treated with compounds in the presence or absence of arachidonic acid (AA; Cat. No. 90010; Cayman Chemical Company, Ann Arbor, MI, USA) or its vehicle (absolute ethanol) as indicated. Subsequently, supernatants were discarded, cells were washed twice with phosphate-buffered saline (PBS; 115 mM NaCl, 20 mM Na2HPO4, pH 7.4; all from Sigma-Aldrich), and 100 µl of a 1 µg/ml Nile Red (Cat. No. N3013; Sigma-Aldrich) solution in PBS was added to each well. The plates were then incubated at 37 °C for 30 min, and fluorescence was measured on FlexStation 3 multimode microplate reader (Molecular Devices, San Francisco, CA, USA). Results, measured in relative fluorescence units, are expressed as percentage of the vehicle (absolute ethanol; Cat. No. 20821.296; VWR International)-treated control regarded as 100%, using 485 nm excitation and 565 nm emission wavelengths.

SZ95 sebocytes [6] = test: Viability MTT-assay on sebocytes, 48 h; type: cell-based, human; details: 30 μM
Procedure: as §1
The viability of HaCaT keratinocytes and SZ95 sebocytes was determined by MTT-assay[58] (Cat. No. M5655; Sigma-Aldrich) measuring the conversion of the tetrazolium salt to formazan by mitochondrial dehydrogenases. Cells were plated in 96-well plates (20,000 cells/well), and were treated as indicated. Cells were then incubated with 0.5 mg/ml MTT reagent for 3 h, and concentration of formazan crystals (as an indicator of number of viable cells) was determined colorimetrically at 565 nm by using FlexStation 3 multi-mode microplate reader (Molecular Devices). Results were expressed as percentage of vehicle-treated control regarded as 100%.

[7] = test system: Staphylococcus epidermidis biofilm forming; test: MIC, broth micro dilution; details: Staphylococcus epidermidis
Procedure: as §2

Pseudomonas aeruginosa = test: Antibacterial effect, broth micro dilution; type: cell-based
[8] = test system: multidrug-resistant Acinetobacter baumannii; test: Antibacterial effect, broth micro dilution
Procedure: as §2

| Structure (SMILES) | MIC [1] | antibacterial effect (no effect up to) (Escherichia coli) | MIC [2] | antibacterial effect (no effect up to) [3] | spontaneous, homeostatic sebaceous lipogenesis (lipid synthesis) (SZ95 sebocytes [4]; 30 μM) | spontaneous, homeostatic sebaceous lipogenesis (SZ95 sebocytes [4]; ≤ 10 μM) | effect on the lipogenic effect of arachidonic acid (AA) (SZ95 sebocytes [5]) | viability (MTT signal intensity) (SZ95 sebocytes [6]) | MIC [7] | antibacterial effect (no effect up to) (Pseudomonas aeruginosa) | antibacterial effect (no effect up to) [8] | spontaneous, homeostatic sebaceous lipogenesis (SZ95 sebocytes [4]; applied alone) |
| --- | --- | --- | --- | --- | --- | --- | --- | --- | --- | --- | --- | --- |
| C=C(C)[C@@H]1CCC(C)=C[C@H]1c1c(O)cc(CCCCC)cc1O [Compound 1, (−)-Cannabidiol] | 4 µg/mL (≈ 12.7 µM) | > 256 µg/mL | 2 µg/mL (≈ 6.36 µM) | > 256 µg/mL | significant decrease in the lipid synthesis | no effect | completely prevent the lipogenic effect | cytotoxic effects | 8 µg/mL (≈ 25.4 µM) | > 256 µg/mL | > 256 µg/mL |  |
| C=C(C)[C@@H]1CCC(C)=C[C@H]1c1c(O)cc(CCCCC)c(COCC)c1O [Compound 9] | 8 µg/mL (≈ 21.5 µM) |  | 8 µg/mL (≈ 21.5 µM) |  |  |  | mimic this lipostatic effect | no such effect on the viability | > 256 µg/mL |  |  | rather promote spontaneous, homeostatic sebaceous lipogenesis |
